Where two headings read alike, the source gives them in different places.
What was measured:
[1] = biological target: NIK/MAP3K14 (Homo sapiens (Human), UniProt Q99558); experiment: Inhibition of auto-phosphorylation of recombinant human NF-kappaB-inducing kinase (NIK/MAP3K14) activity (AlphaScreen); format: biochemical; conditions: averaged values over all measurements on all batches, 25 microM ATP
Experimental: Inhibition of Auto-Phosphorylation of Recombinant Human NF-kappaB-Inducing Kinase ([…]) Activity (AlphaScreen®)
NIK/MAP3K14 auto-phosphorylation activity was measured using the AlphaScreen® (αscreen) format (Perkin Elmer). All compounds tested were dissolved in dimethyl sulfoxide (DMSO) and further dilutions were made in assay buffer. Final DMSO concentration was […] in assays. Assay buffer was 50 mM Tris pH 7.5 containing 1 mM EGTA (ethylene glycol tetraacetic acid), 1 mM DTT (dithiothreitol), 0.1 mM Na3VO4, 5 mM MgCl2, 0.01% Tween® 20. Assays were carried out in 384 well Alphaplates (Perkin Elmer). Incubations consisted of compound, 25 microM Adenosine-5′-triphosphate (ATP), and 0.2 nM NIK/MAP3K14. Incubations were initiated by addition of GST-tagged NIK/MAP3K14 enzyme, carried out for 1 h at 25° C. and terminated by addition of stop buffer containing anti-phospho-[…] Ser176/180 antibody. Protein A Acceptor and Glutathione-Donor beads were added before reading using an EnVision® Multilabel Plate Reader (Perkin Elmer). Signal obtained in the wells containing blank samples was subtracted from all other wells and IC50's were determined by fitting a sigmoidal curve to % inhibition of control versus Log10 compound concentration.

[2] = tested on: P-IKKα levels in L363 cells; experiment: Effect of compounds on P-IKKα levels in L363 (NIK translocated multiple myeloma) cells; format: cell-based, human; conditions: 2 hr treatment, averaged values, read-out: Inhibition of pIKKα_L-363 (IC50 (nM))
Experimental: Effect of Compounds on P-IKKα Levels in L363 (NIK Translocated Multiple Myeloma) Cells
All compounds tested were dissolved in DMSO and further dilutions were made in culture medium. Final DMSO concentration was 1% (v/v) in cell assays. The human L363 cells (ATCC) were cultured in RPMI 1640 medium supplemented with GlutaMax and 10% fetal calf serum (PAA). Cells were routinely maintained at densities of 0.2×10^6 cells per ml—1×10^6 cells per ml at 37° C. in a humidified 5% CO2 atmosphere. Cells were passaged twice a week splitting back to obtain the low density. Cells were seeded in 96 well plates (Nunc 167008) at 2×10^6 per ml media in a volume of 75 μl per well plus 25 μl 1 μg/ml recombinant human B-cell activating factor (BAFF/BLyS/TNFSF13B). Seeded cells were incubated at 37° C. in a humidified 5% CO2 atmosphere for 24 hr. Drugs and/or solvents were added (20 μl) to a final volume of 120 μl. Following 2 hr treatment plates were removed from the incubator and cell lysis was achieved by the addition of 30 μl 5× lysis buffer followed by shaking on a plate shaker at 4° C. for 10 min. At the end of this incubation lysed cells were centrifuged at 800×g for 20 min at 4° C. and the lysate was assessed for P-IKKα levels by sandwich immuno-assay carried out in anti-rabbit antibody coated Mesoscale plates. Within an experiment, the results for each treatment were the mean of 2 replicate wells. For initial screening purposes, compounds were tested using an 8 point dilution curve (serial 1:3 dilutions). For each experiment, controls (containing MG132 and BAFF but no test drug) and a blank incubation (containing MG132 and BAFF and 10 μM ADS125117, a test concentration known to give full inhibition) were run in parallel. The blank incubation value was subtracted from all control and sample values. To determine the IC50 a sigmoidal curve was fitted to the plot of % inhibition of control P-IKKα levels versus Log10 compound concentration.

[3] = tested on: JJN-3 cells; experiment: Antiproliferative activity on JJN-3 (NIK translocated) multiple myeloma cells (CellTiter-Glo); format: cell-based, human; conditions: JJN-3 (NIK translocated) cells, 96 hr treatment, averaged values, read-out: JJN-3 Proliferation inhibition (IC50 (nM))
Experimental: (§1) Determination of Antiproliferative Activity on JJN-3 (NIK Translocated) and KMS12-BM (NIK WT) Multiple Myeloma Cells
(§2) All compounds tested were dissolved in DMSO and further dilutions were made in culture medium. Final DMSO concentration was 0.3% (v/v) in cell proliferation assays. Viability was assessed using CellTiter-Glo cell viability assay kit (Promega). The human JJN-3 and KMS12-BM cells (DSMZ) were cultured in RPMI 1640 medium supplemented with 2 mM L-glutamine, and 10% fetal calf serum (PAA). Cells were routinely kept as suspension cells at 37° C. in a humidified 5% CO2 atmosphere. Cells were passaged at a seeding density of 0.2×10^6/ml twice a week. Cells were seeded in black tissue culture treated 96-well plates (Perkin Elmer). Densities used for plating ranged from 15000 (JJN3) to 20000 (KMS12BM) cells per well in a total volume of […]. Drugs and/or solvents were added (15 μl) to a final volume of 150 μl. Following 96 hr of treatment, plates were removed from the incubator and allowed to equilibrate to room temperature for approx 10 min. 75 μl CellTiter-Glo reagent was added to each well that was then covered (Perkin Elmer Topseal) and shaken on plate shaker for 10 min. Luminescence was measured on a HTS Topcount (Perkin Elmer). Within an experiment, the results for each treatment were the mean of 2 replicate wells. For initial screening purposes, compounds were tested using a 9 point dilution curve (serial 1:3 dilutions). For each experiment, controls (containing no drug) and a blank incubation (containing cells read at the time of compound addition) were run in parallel. The blank value was subtracted from all control and sample values. For each sample, the mean value for cell growth (in relative light units) was expressed as a percentage of the mean value for cell growth of the control.

[4] = tested on: KMS12-BM cells; experiment: Antiproliferative activity on KMS12-BM (NIK WT) multiple myeloma cells (CellTiter-Glo); format: cell-based, human; conditions: 96 hr treatment, averaged values, read-out: KMS-12 Proliferation inhibition (IC50 (nM))
Experimental: as §1, §2

Sequence of NIK/MAP3K14 (Q99558 whole entry): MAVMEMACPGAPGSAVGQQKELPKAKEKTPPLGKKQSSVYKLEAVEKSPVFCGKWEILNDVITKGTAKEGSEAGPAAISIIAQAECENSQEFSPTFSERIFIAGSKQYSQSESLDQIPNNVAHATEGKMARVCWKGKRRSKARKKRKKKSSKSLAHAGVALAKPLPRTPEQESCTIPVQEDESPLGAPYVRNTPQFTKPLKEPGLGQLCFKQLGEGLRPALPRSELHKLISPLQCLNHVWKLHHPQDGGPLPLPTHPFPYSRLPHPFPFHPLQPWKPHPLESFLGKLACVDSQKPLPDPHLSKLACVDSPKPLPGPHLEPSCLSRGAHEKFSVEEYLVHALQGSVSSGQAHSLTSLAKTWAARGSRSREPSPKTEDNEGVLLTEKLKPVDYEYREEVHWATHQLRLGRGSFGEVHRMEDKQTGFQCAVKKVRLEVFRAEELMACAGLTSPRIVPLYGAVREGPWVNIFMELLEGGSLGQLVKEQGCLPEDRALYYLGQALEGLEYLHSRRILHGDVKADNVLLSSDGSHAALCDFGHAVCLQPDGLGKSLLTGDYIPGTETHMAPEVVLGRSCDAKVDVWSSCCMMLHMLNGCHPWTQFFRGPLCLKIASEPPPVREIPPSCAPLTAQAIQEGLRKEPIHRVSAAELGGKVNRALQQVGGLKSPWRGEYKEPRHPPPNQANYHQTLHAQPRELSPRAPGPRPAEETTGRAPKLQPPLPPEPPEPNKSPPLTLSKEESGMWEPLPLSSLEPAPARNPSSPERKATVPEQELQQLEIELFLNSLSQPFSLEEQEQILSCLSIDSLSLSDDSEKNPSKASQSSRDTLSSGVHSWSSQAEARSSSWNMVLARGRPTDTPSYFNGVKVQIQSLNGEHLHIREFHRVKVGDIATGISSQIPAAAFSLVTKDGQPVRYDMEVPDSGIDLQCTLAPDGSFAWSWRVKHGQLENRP

Row | SMILES | IC50 [1] | IC50 ([2]; Homo sapiens, L-363, 2 h) | IC50 ([3]; Homo sapiens, JJN-3, 96 h) | IC50 ([4]; Homo sapiens, KMS-12-BM, 96 h) | IC50 [2] | IC50 [3] | IC50 [4]
1 | CN1CCc2cc(CCC3CC3)c(Nc3nccc(-c4cc(C#N)c5c(c4)[C@@](C)(CO)CN5)n3)cc2CC1 (mixture of isomers) [Compound 26] | 5.1 nM | 501 nM | 692 nM | ~525 nM |  |  | 
2 | CCCCCc1cc2c(cc1Nc1nccc(-c3cc(C#N)c4c(c3)[C@@](C)(CO)CN4)n1)CCN(C)CC2 (mixture of isomers) [Compound 27] | 7.1 nM | ~1200 nM | 871 nM | 1380 nM |  |  | 
3 | CC1(CO)COc2c(Nc3nccc(-c4cc(C#N)c5c(c4)[C@@](C)(CO)CN5)n3)cnn2C1 (mixture of isomers) [Compound 31b] | 5 nM | 63 nM | ~2140 nM | ~7760 nM |  |  | 
4 | CC1CC(C)n2ncc(Nc3nccc(-c4cc(C#N)c5c(c4)C(C)(CO)CN5)n3)c2O1 (racemic) [Compound 20b] | 6.2 nM |  |  |  | 2 nM |  | 
5 | CC1CC(C)n2ncc(Nc3nccc(-c4cc(C#N)c5c(c4)C(C)(CO)CN5)n3)c2O1 (racemic) [Compound 21b] | 5.9 nM |  | 269 nM | 2510 nM | 5 nM |  | 
6 | CC1(C)CNc2c(C#N)cc(-c3ccnc(Nc4cc(Cl)cc5[nH]ccc45)n3)cc21 [Compound 7c] |  | 72 nM | 537 nM | > 10000 nM |  |  | 
7 | CN(C)C(=O)c1cc2cc(Nc3nccc(-c4cc(C#N)c5c(c4)C(C)(C)CN5)n3)ccc2[nH]1 [Compound 12c] | 10.5 nM | 14 nM |  |  |  |  | 
8 | COc1cc2[nH]ccc2cc1Nc1nccc(-c2cc(C#N)c3c(c2)C(C)(CO)CN3)n1 (stereo not drawn) [Compound 13c] | 6.2 nM | 3 nM |  |  |  |  | 
9 | CN(C)C1COc2c(cc(Cl)cc2Nc2nccc(-c3cc(C#N)c4c(c3)[C@@](C)(CO)CN4)n2)C1 (stereo partly drawn) [Compound 17] | 3.3 nM |  |  |  |  | 5 nM | 182 nM
10 | CN(C)C(=O)C(=O)N1CCc2c(Nc3nccc(-c4cc(C#N)c5c(c4)[C@@](C)(CO)CN5)n3)cc(Cl)cc21 [Compound 19] | 5 nM |  | 6 nM | ~692 nM |  |  | 
11 | COCCCc1cc2c(cc1Nc1nccc(-c3cc(C#N)c4c(c3)[C@@](C)(CO)CN4)n1)CCN(C)CC2 [Compound 20] | 20.4 nM |  | 372 nM | 1480 nM |  |  | 
12 | C[C@]1(CO)CNc2c(C#N)cc(-c3ccnc(Nc4cc5c(nc4C#CC4CC4)CCOC5)n3)cc21 [Compound 22] | 2240 nM | > 10000 nM |  |  |  |  | 
13 | CC1OCCn2nc(Nc3nccc(-c4cc(C#N)c5c(c4)C(C)(C)CN5)n3)cc21 (stereo not drawn) [Compound 32b] | 5.9 nM | 8 nM |  |  |  |  | 
14 | CN1CCc2nc(OCC3CC3)c(Nc3nccc(-c4cc(C#N)c5c(c4)[C@@](C)(CO)CN5)n3)cc2C1 [Compound 35] | 4.3 nM | 69 nM |  |  |  |  | 
15 | CC(=O)N1CCc2c1ccc(Nc1nccc(-c3cc(C#N)c4c(c3)C(C)(CO)CN4)n1)c2F (stereo not drawn) [Compound 36] | 3.7 nM | 16 nM |  |  |  |  | 
16 | CC1(CO)CNc2c(C#N)cc(-c3ccnc(Nc4ccc5c(c4F)CCN5)n3)cc21 (stereo not drawn) [Compound 37] | 4.3 nM | 9 nM |  |  |  |  | 
17 | CN(C)CC(=O)N1CCc2c1ccc(Nc1nccc(-c3cc(C#N)c4c(c3)C(C)(CO)CN4)n1)c2F (stereo not drawn) [Compound 38] | 3.4 nM | 12 nM |  |  |  |  | 
18 | COc1cc2c(cc1Nc1nccc(-c3cc(C#N)c4c(c3)C(C)(CO)CN4)n1)CCN2C(C)=O (stereo not drawn) [Compound 39] | 2.5 nM | 3 nM |  |  |  |  | 
19 | COc1cc2c(cc1Nc1nccc(-c3cc(C#N)c4c(c3)C(C)(CO)CN4)n1)CCN2C(=O)CN(C)C (stereo not drawn) [Compound 40] | 4.3 nM | 3 nM |  |  |  |  | 
20 | Cc1c(Nc2nccc(-c3cc(C#N)c4c(c3)C(C)(CO)CN4)n2)ccc2c1CC(=O)N2 (stereo not drawn) [Compound 42] | 8.9 nM |  |  |  | 36 nM |  | 
21 | CN(C)C(=O)C1Cc2cc(Nc3nccc(-c4cc(C#N)c5c(c4)C(C)(C)CN5)n3)ccc2N1 (stereo not drawn) [Compound 43] | 6.6 nM | 5 nM |  |  |  |  | 
22 | CC1(CO)CNc2c(C#N)cc(-c3ccnc(Nc4cnc5c(c4)COCC5)n3)cc21 (stereo not drawn) [Compound 45] | 2.7 nM |  | ~60 nM | ~186 nM |  |  | 
23 | C[C@]1(CO)CNc2c(C#N)cc(-c3ccnc(Nc4cc5c(nc4OC4CCCC4)CCOC5)n3)cc21 [Compound 47] | 35.5 nM | 51 nM |  |  |  |  | 
24 | CC(C)Oc1nc2c(cc1Nc1nccc(-c3cc(C#N)c4c(c3)[C@@](C)(CO)CN4)n1)CN(C1CC1)CC2 [Compound 49] | 34.7 nM | 115 nM |  |  |  |  | 
25 | COc1nc2c(cc1Nc1nccc(-c3cc(C#N)c4c(c3)[C@@](C)(CO)CN4)n1)CCN(C)C2 [Compound 53] |  | 1 nM | 12 nM | ~468 nM |  |  | 
26 | CN1CCc2ncc(Nc3ncc(F)c(-c4cc(C#N)c5c(c4)[C@@](C)(CO)CN5)n3)cc2C1 [Compound 54] |  | 2 nM | ~7 nM | ~9 nM |  |  | 
27 | CN1CCc2[nH]c(=O)c(Nc3nccc(-c4cc(C#N)c5c(c4)C(C)(CC(F)F)CN5)n3)cc2C1 (stereo not drawn) [Compound 57] | 17.4 nM |  | 11200 nM | > 10000 nM |  |  | 
28 | COc1cc2c(cc1Nc1nccc(-c3cc(C#N)c4c(c3)C(C)(CO)CN4)n1)NC(=O)CC2 (stereo not drawn) [Compound 59] | 12.9 nM | 37 nM |  |  |  |  | 

Reference: US11186589B2, “Cyanoindoline derivatives as NIK inhibitors” (Janssen Pharmaceutica NV, priority 2016, dated 2021)
